Values quoted from earlier work, collected in patent US20200323770A1, “WOUND DEBRIDEMENT COMPOSITION AND METHOD FOR TREATING WOUNDS” (Hollister Incorporated, priority 2017, published 2020).

Conditions: in vitro; increasing papain concentrations 200-1,600 USP units/mg in 10% urea

papain
increased: collagenolysis | elastinolysis | fibrinolysis
